Data on 25 compounds can be found in patent US20060252807A1, “Novel ortho-terphenyl inhibitors of p38 kinase and methods of treating inflammatory disorders” (Kalypsys, Inc., priority 2005, published 2006).

Broadly, the IC50 is the concentration at which inhibition is half-maximal. Higher therefore signals weaker potency in that assay.

For the first assay, the target named is T1, active p38 alpha enzyme (Upstate Biotechnology) (Homo sapiens, UniProt Q16539).
T1 construct: purchased Upstate Biotechnology
T1 sequence (Q16539 whole entry): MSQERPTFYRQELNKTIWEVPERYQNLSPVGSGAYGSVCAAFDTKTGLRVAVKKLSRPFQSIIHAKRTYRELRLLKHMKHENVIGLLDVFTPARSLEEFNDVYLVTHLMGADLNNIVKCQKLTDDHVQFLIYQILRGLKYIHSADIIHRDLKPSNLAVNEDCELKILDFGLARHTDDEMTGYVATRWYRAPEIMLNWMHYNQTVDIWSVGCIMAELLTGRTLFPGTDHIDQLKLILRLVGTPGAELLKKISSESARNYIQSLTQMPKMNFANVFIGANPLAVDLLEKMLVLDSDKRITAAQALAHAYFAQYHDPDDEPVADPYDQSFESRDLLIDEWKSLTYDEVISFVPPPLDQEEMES
The experiment in a line: p38α biochemical assay (ATP turnover, luminescent detection, Cambrex PKlight). To be noted: p38α biochemical assay, Table 1 Biological Activity. The method in brief: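 Luminescent ATP-depletion readout measures total ATP turnover by p38α phosphorylating whole MapkapK2 protein. ATP 1.4 uM final; 30C, 2 h. Compounds delivered from DMSO.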
The compound `COc1ccc(OC)c(C(=O)NCc2nc(-c3ccc(F)cc3)c(-c3nc(C(=O)NC(C)C)cs3)o2)c1` [Example 224] returned a half-maximal inhibitory concentration (IC50) of over 1000 nM.
On the same count and under the same terms, then `CC(C)NC(=O)c1csc(-c2c(-c3ccc(F)cc3)noc2CNC(=O)C2CCc3ccccc3C2)n1` (stereo not shown) [Example 679], with over 1000 nM.
Consider `CC(C)NC(=O)c1csc(-c2c(-c3ccc(F)cc3)ncn2C2CCN(Cc3ccccc3)CC2)n1` [Example 88, 2-|3-(1-Benzyl-piperidin-4-yl)-5-(4-fluoro-phenyl)-3H-imidazol-4-yl|-thiazole-4-carboxylic acid isopropylamide], for which the half-maximal inhibitory concentration (IC50) is over 1000 nM.
With `Cc1ccccc1CC(=O)NCc1nc(-c2ccc(F)cc2)c(-c2nc(C(=O)NC(C)C)cs2)o1` [Example 135], the concentration for half-maximal inhibition (IC50) was over 1000 nM.
`CC(CC(=O)NCc1nc(-c2ccc(F)cc2)c(-c2nc(C(=O)NC(C)C)cs2)o1)CC(C)(C)C` (stereo not shown) [Example 162] returned an IC50 of over 1000 nM.
Still for that read-out and setting: for `CC(C)NC(=O)c1csc(-c2oc(CN3CCN(C(=O)c4cccc(O)c4)CC3)nc2-c2ccc(F)cc2)n1` [Example 361] the value was over 1000 nM.
On the same count and under the same terms, then `CCCCc1ccc(C(=O)N2CCN(Cc3nc(-c4ccc(F)cc4)c(-c4nc(C(=O)NC(C)C)cs4)o3)CC2)cc1` [Example 445], with over 1000 nM.
Regarding `CC(C)NC(=O)c1csc(-c2c(-c3ccc(F)cc3)noc2CNC(=O)c2cc(Cl)c(O)c(Cl)c2)n1` [Example 756], the 50% inhibitory concentration (IC50) was over 1000 nM.
Still for that read-out and setting: for `CC(C)NC(=O)c1csc(-c2c(-c3ccc(F)cc3)noc2CNC(=O)c2ccccc2Cl)n1` [Example 626] the value was over 1000 nM; for `Cc1ccc([N+](=O)[O-])c(C(=O)NCc2nc(-c3ccc(F)cc3)c(-c3nc(C(=O)NC(C)C)cs3)o2)c1` [Example 222], at most 1000 nM; for `CC(C)NC(=O)c1csc(-c2c(-c3ccc(F)cc3)noc2CNC(=O)C=O)n1` [Example 574], over 1000 nM.

Staying with this assay, now noted: p38α kinase; Table 1 Biological Activity.
In turn, `CC(C)NC(=O)c1csc(-c2c(-c3ccc(F)cc3)noc2CN2CCCC2CO)n1` (stereo not shown) [Example 1525] came in with a 50% inhibitory concentration (IC50) of at most 1000 nM.
The same measure, in the same setting: then `CC(C)NC(=O)c1csc(-c2oc(CNc3cc(C(F)(F)F)cc(C(F)(F)F)c3)nc2-c2ccc(F)cc2)n1` [Example 1373], with over 1000 nM; and `CC(=O)c1ccc(C(=O)N2CCC(c3[nH]nc(-c4ccc(F)cc4)c3-c3nc(C(=O)NC(C)C)cs3)CC2)cc1` [Example 881], with over 1000 nM.
On to `CC(C)NC(=O)c1csc(-c2c(-c3ccc(F)cc3)noc2CN2CCC(C(N)=O)CC2)n1` [Example 1544], for which the IC50 is over 1000 nM.
Still for that read-out and setting: for `CC(C)NC(=O)c1csc(-c2oc(CNc3ccc4c(c3)OCO4)nc2-c2ccc(F)cc2)n1` [Example 1339] the value was over 1000 nM.
Turning to `CC(C)NC(=O)c1csc(-c2oc(CNc3ccc(F)c(C(F)(F)F)c3)nc2-c2ccc(F)cc2)n1` [Example 1365], the IC50 is over 1000 nM.
Still for that read-out and setting: then `COc1cccc(OC)c1C(=O)N1CCC(c2[nH]nc(-c3ccc(F)cc3)c2-c2nc(C(=O)NC(C)C)cs2)CC1` [Example 940], with over 1000 nM; and `CC(C)NC(=O)c1csc(-c2oc(CN3CCCC4CCCCC43)nc2-c2ccc(F)cc2)n1` (stereo not shown) [Example 1230], with over 1000 nM.
On the same count and under the same terms, for `CC(C)NC(=O)c1csc(-c2c(-c3ccc(F)cc3)n[nH]c2C2CCN(C(=O)c3ccc(C(C)C)cc3)CC2)n1` [Example 885] the value was over 1000 nM; for `COC(=O)C1CCN(Cc2onc(-c3ccc(F)cc3)c2-c2nc(C(=O)NC(C)C)cs2)CC1` [Example 1557], over 1000 nM.
In the case of `COc1ccc(Cl)cc1C(=O)N1CCC(c2[nH]nc(-c3ccc(F)cc3)c2-c2nc(C(=O)NC(C)C)cs2)CC1` [Example 952], the IC50 is over 1000 nM.
Compound `Cc1cccc(N2CCN(Cc3onc(-c4ccc(F)cc4)c3-c3nc(C(=O)NC(C)C)cs3)CC2)c1C` [Example 1588] displayed an IC50 of over 1000 nM.
On the same count and under the same terms, then `CC(C)NC(=O)c1csc(-c2c(-c3ccc(F)cc3)noc2CN2CCC[C@@H]2CO)n1` [Example 1526], with over 1000 nM; and `CC(C)NC(=O)c1csc(-c2c(-c3ccc(F)cc3)noc2CNC2CC2)n1` [Example 1386], with over 1000 nM.
